Consider ten compounds from patent publication EP4635944A1, “2-AZABICYCLO[3.1.1]HEPTANE COMPOUND” (Daiichi Sankyo Company, Limited, priority 2022, dated 2024).

Data set [1] deals with T1, human OX2R (Homo sapiens, UniProt O43614).
T1 construct: host or cells: CHO-K1 (Chinese Hamster Ovary K1)
T1 sequence (O43614 1-444): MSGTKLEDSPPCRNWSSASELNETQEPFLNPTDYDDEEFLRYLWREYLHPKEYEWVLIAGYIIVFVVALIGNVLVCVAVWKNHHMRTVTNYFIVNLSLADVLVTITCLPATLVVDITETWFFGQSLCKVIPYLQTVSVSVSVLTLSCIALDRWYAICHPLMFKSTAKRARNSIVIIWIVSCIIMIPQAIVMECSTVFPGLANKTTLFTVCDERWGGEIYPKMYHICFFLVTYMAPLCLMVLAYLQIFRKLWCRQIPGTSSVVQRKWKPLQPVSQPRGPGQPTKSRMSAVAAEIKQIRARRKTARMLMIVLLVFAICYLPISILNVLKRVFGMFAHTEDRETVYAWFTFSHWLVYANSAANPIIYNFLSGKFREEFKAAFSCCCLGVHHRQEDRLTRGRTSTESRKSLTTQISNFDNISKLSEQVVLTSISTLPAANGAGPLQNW
The data set is described as follows: Evaluation of OX2R agonist activity (intracellular calcium, CHO-K1 cells with forced expression of human OX2R). Type of data set: cell-based. Particulars: CHO-K1 cells expressing human OX2R; 100% = 5 µM of the reference compound; read-out: hOX2R EC50. Summed up:
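Cells seeded 7500/well, cultured 24 h, loaded with Fluo 4-AM (2.5 µg/mL final) plus probenecid for 30 min. Calcium response read as 480/540 nm excitation ratio; max–min signal 5–7 s after compound addition, normalized to buffer (0%) and 5 µM reference agonist (100%). EC50 from concentration series; 0.5% DMSO final.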
For orientation: Calcium assays in cells follow changes in intracellular calcium, usually with a dye or a luminescent sensor.

Data set [2] relates to male C57BL/6J mice. The data set is described as follows: Acceleration of locomotor activity (arousal effect in mice). In kind it is in vivo. The settings on record: 10 mg/kg of body weight, orally; cumulative counts for one hour after administration; solvent administration group = 100%. How it is done:
Acceleration of locomotor activity
Acceleration of locomotor activity in rodents can be an indicator of arousal. An experiment was carried out on the arousal effect of the test compound in mice, using the acceleration of locomotor activity as the indicator. For the experiment, male C57BL/6J mice (6 weeks old, THE JACKSON LABORATORY JAPAN, INC., 6 to 8 animals per group) were used. Mice were allowed to acclimate for 1 hour or longer in the rearing cage in the room where the measurement was to be performed, until the experiment. After the acclimation, the mice were placed in a locomotor activity measuring apparatus (the behavior analyzer SCANET-40 series, Melquest Ltd.) equipped with an infrared sensor to start the measurement. After 2 hours, either the solvent or the test compound (10 mg/kg of body weight) was orally administered, and the mice were immediately returned to the measuring apparatus and the measurement was further performed for 2 hours. The test compound was suspended in the 0.5 w/v% methylcellulose 400 solution (Wako Pure Chemical Industries, Ltd., Japan). The locomotor activity was counted every 5 minutes, and the cumulative counts for one hour after administration were calculated for each treatment group. The proportion of the locomotor activity of the test compound administration group to the solvent administration group whose locomotor activity was defined as 100% was calculated and shown in Table 2.

Data set [3] in a line: Evaluation of metabolic stability in human liver microsomes. The settings on record: for metabolic stability compared to the corresponding compounds that were not deuterated: human liver microsomes, 30 minutes, deuterated at specific positions; for Human metabolic stability Residual ratio (%): test compound 1 µM, human liver microsomes 0.5 mg/mL, 30 minutes at 37°C. In kind it is in vitro ADME. As to the method: Evaluation of metabolic stability of OX2R agonist
The test compound (final concentration was 1 µM, dissolved in DMSO/acetonitrile = 1/99), pooled human liver microsomes (final concentration was 0.5 mg/mL), and sodium phosphate buffer (pH 7.4, final concentration was 100 mM) were admixed and preincubated at 37°C for 15 minutes. Thereafter, a mixed solution of glucose-6-phosphate (final concentration was 10 mM), glucose-6-phosphate dehydrogenase (final concentration was 1 U/mL), and magnesium chloride (final concentration was 3.3 mM) was added and a certain amount of the mixture was collected. Then, an acetonitrile/methanol mixed solution (75/25, v/v) containing a 4.5-fold volume of internal standard substances (final concentrations: phenacetin: 1 ng/mL, niflumic acid: 15 ng/mL, furosemide: 20 ng/mL) was added to stop the reaction (0 min sample). Subsequently, β-nicotinamide adenine dinucleotide phosphate (final concentration was 1 mM) was added, and after 30 minutes of incubation at 37°C, a certain amount of the mixture was collected, to which an acetonitrile/methanol mixed solution (75/25, v/v) containing a 4.5-fold volume of the internal standard substances was added to stop the reaction (30 min sample). For both samples, a portion of the supernatant after centrifugation (about 1200 × g, 4°C, 15 minutes) was injected into a liquid chromatograph tandem quadrupole mass spectrometer (LC-MS/MS) for analysis. The metabolic stability was evaluated by comparing the test compound/internal standard substance ratio of the 30 min sample with the 0 min sample and calculating the residual ratio of the test compound. […]
In general terms: Microsomes from liver hold many membrane-bound enzymes, among them those of drug oxidation.

A short description of data set [4]: Evaluation of ERM production (GSH adduct detection in human liver microsomes). Particulars: test compound 500 µM, human liver microsomes 2 mg/mL, GSH/SI-GSH, 37°C for 60 minutes; negative = no metabolite GSH adduct pair peak. In kind it is in vitro ADME. How it is done: Evaluation of ERM production from OX2R agonist
The test compound (final concentration was 500 µM, dissolved in DMSO/acetonitrile = 1/9), pooled human liver microsomes (final concentration was 2 mg/mL), L-glutathione reduced (GSH, final concentration was 0.5 mM), potassium phosphate buffer (pH 7.4, final concentration was 100 mM), and stable isotope labeled GSH (SI-GSH, final concentration was 0.5 mM) were admixed and preincubated at 37°C for 3 minutes. Thereafter, a mixed solution of glucose-6-phosphate (final concentration was 25 mM), β-nicotinamide adenine dinucleotide phosphate (final concentration was 0.25 mM), glucose-6-phosphate dehydrogenase (final concentration was 2 U/mL), and magnesium chloride (final concentration was 10 mM) was added, and incubation was performed at 37°C for 60 minutes. After the incubation, the reaction was stopped by adding a 2-fold volume of acetonitrile. A portion of the supernatant after centrifugation (about 1200 × g, 4°C, 15 minutes) was injected into a liquid chromatograph quadrupole time-of-flight mass spectrometer (Q-Tof) for analysis. The mass number of metabolites, GSH adduct and SI-GSH adduct, predicted from the chemical structural formula of the test compound was calculated, and the presence of the corresponding peaks in the measurement sample was checked. Peaks with the same retention time and approximately equal peak area of the detected peaks of the metabolites, GSH adduct and SI-GSH adduct, were extracted as pair peaks. The presence of a pair peak determined to be a metabolite GSH adduct was considered positive for ERM production potential, whereas the absence of such a peak was considered negative for ERM production potential.

pEC50: −log10 of the molar value.

As for `[2H]C([2H])([2H])[C@@]([2H])(O)C(=O)N1C2CC(F)(C2)[C@H](NS(C)(=O)=O)[C@@H]1Cc1cccc(-c2ccccc2)c1F` [Example 89, N-{(3S,4R)-5-Fluoro-3-[(2-fluoro[biphenyl]-3-yl)methyl]-2-[(2R)-2-hydroxy(^2H4)propanoyl]-2-azabicyclo[3.1.1]heptan-4-yl}methanesulfonamide], the pEC50 in data set [1] is 7.74. Moreover, the “Locomotor activity (%)” value in data set [2] amounted to 412%. Further, in data set [3], the “metabolic stability compared to the corresponding compounds that were not deuterated” value is on record as “improved metabolic stability” and the “Human metabolic stability Residual ratio (%)” value is listed as 75%.
The corresponding values for `[2H]C([2H])([2H])[C@@]([2H])(O)C(=O)N1C2CC(F)(C2)[C@H](NS(C)(=O)=O)[C@@H]1Cc1cc(F)cc(-c2ccccc2)c1F` [Example 87, N-{(3S,4R)-3-[(2,5-Difluoro[biphenyl]-3-yl)methyl]-5-fluoro-2-[(2R)-2-hydroxy(^2H4)propanoyl]-2-azabicyclo[3.1.1]heptan-4-yl}methanesulfonamide] are 7.52, 221%, “improved metabolic stability” and 70%.
For `[2H]C([2H])([2H])[C@@]([2H])(O)C(=O)N1C2CC(C2)[C@H](NS(C)(=O)=O)[C@@H]1Cc1cccc(-c2ccccc2)c1F` [Example 76, N-{(3S,4S)-3-[(2-Fluoro[biphenyl]-3-yl)methyl]-2-[(2R)-2-hydroxy(^2H4)propanoyl]-2-azabicyclo[3.1.1]heptan-4-yl}methanesulfonamide], in data set [1], the pEC50 was 7.74. The ERM production potential entry in data set [4] was “negative”. Further, in data set [3], the “metabolic stability compared to the corresponding compounds that were not deuterated” value is “improved metabolic stability” and the “Human metabolic stability Residual ratio (%)” value amounted to 59%.
On to `C[C@@H](O)C(=O)N1C2CC(C2)[C@H](NS(C)(=O)=O)[C@@H]1Cc1cc(F)cc(-c2ccccc2)c1F` [Example 58, N-{(3S,4S)-3-[(2,5-Difluoro[biphenyl]-3-yl)methyl]-2-[(2R)-2-hydroxypropanoyl]-2-azabicyclo[3.1.1]heptan-4-yl}methanesulfonamide], for which, in data set [1], the pEC50 was 7.42. Further, the ERM production potential result in data set [4] is “negative”. The “Human metabolic stability Residual ratio (%)” value in data set [3] was determined as 34%.
With `[2H][C@](C)(O)C(=O)N1C2CC(C2)[C@H](NS(C)(=O)=O)[C@@H]1Cc1cc(F)cc(-c2ccccc2)c1F` [Example 98, N-{(3S,4S)-3-[(2,5-Difluoro[biphenyl]-3-yl)methyl]-2-[(2R)-2-hydroxy(2-^2H)propanoyl]-2-azabicyclo[3.1.1]heptan-4-yl}methanesulfonamide], in data set [1], the pEC50 is 7.44. Also, in data set [4], the ERM production potential result is “negative”. Also, in data set [2], the “Locomotor activity (%)” value came to 281%. In data set [3], the “metabolic stability compared to the corresponding compounds that were not deuterated” value is “improved metabolic stability” and the “Human metabolic stability Residual ratio (%)” value stood at 58%.
As for `[2H][C@](C)(O)C(=O)N1C2CC(C2)[C@H](NS(C)(=O)=O)[C@@H]1Cc1cccc(-c2ccccc2)c1F` [Example 97, N-{(3S,4S)-3-[(2-Fluoro[biphenyl]-3-yl)methyl]-2-[(2R)-2-hydroxy(2-^2H)propanoyl]-2-azabicyclo[3.1.1]heptan-4-yl}methanesulfonamide], in data set [1], the pEC50 is 7.68. Besides, the ERM production potential result in data set [4] is given as “negative”. Moreover, the “Locomotor activity (%)” value in data set [2] stood at 601%. In data set [3], the “metabolic stability compared to the corresponding compounds that were not deuterated” value is given as “improved metabolic stability” and the “Human metabolic stability Residual ratio (%)” value is listed as 57%.
Regarding `CS(=O)(=O)N[C@H]1C2CC(C2)N(C(=O)C2(O)CCC2)[C@H]1Cc1cccc(-c2ccccc2)c1F` [Example 62, N-{(3S,4S)-3-[(2-Fluoro[biphenyl]-3-yl)methyl]-2-[(1-hydroxycyclobutyl)carbonyl]-2-azabicyclo[3.1.1]heptan-4-yl}methanesulfonamide], the pEC50 in data set [1] is 7.85. For the same compound, the ERM production potential entry in data set [4] is given as “negative”.
As to `CC(C)(O)C(=O)N1C2CC(C2)[C@H](NS(C)(=O)=O)[C@@H]1Cc1cccc(-c2ccccc2)c1F` [Example 10, N-[(3S,4S)-3-[(2-Fluoro[biphenyl]-3-yl)methyl]-2-(2-hydroxy-2-methylpropanoyl)-2-azabicyclo[3.1.1]heptan-4-yl]methanesulfonamide], the pEC50 in data set [1] was 6.53. In data set [4], the ERM production potential entry is on record as “negative”.
Taken in the same sequence, the figures for `[2H]C([2H])([2H])[C@@]([2H])(O)C(=O)N1C2CC(C2)[C@H](NS(=O)(=O)CC)[C@@H]1Cc1cccc(-c2ccccc2)c1F` [Example 94, N-{(3S,4S)-3-[(2-Fluoro[biphenyl]-3-yl)methyl]-2-[(2R)-2-hydroxy(^2H4)propanoyl]-2-azabicyclo[3.1.1]heptan-4-yl}ethanesulfonamide] were 7.66 and “negative”.
With `[2H]C([2H])([2H])[C@@]([2H])(O)C(=O)N1C2CC(C2)[C@H](NS(C)(=O)=O)[C@@H]1Cc1cc(F)cc(-c2ccccc2)c1F` [Example 88, N-{(3S,4S)-3-[(2,5-Difluoro[biphenyl]-3-yl)methyl]-2-[(2R)-2-hydroxy(^2H4)propanoyl]-2-azabicyclo[3.1.1]heptan-4-yl}methanesulfonamide], the pEC50 in data set [1] is 7.37. Further, the ERM production potential entry in data set [4] is given as “negative”. Besides, in data set [3], the “metabolic stability compared to the corresponding compounds that were not deuterated” value is recorded as “improved metabolic stability” and the “Human metabolic stability Residual ratio (%)” value is 59%.

The term pEC50 denotes the negative decadic logarithm of the EC50, by convention in mol/L.
